Residues, ends and D or L forms follow the SMILES beside them.
Target: T1, hT1R2/hT1R3 (Homo sapiens, UniProt Q7RTX0+Q8TE23, C757R)
T1 construct: expressed in transfected cells; host or cells: HEK293E
T1 sequence (Q8TE23 20-839): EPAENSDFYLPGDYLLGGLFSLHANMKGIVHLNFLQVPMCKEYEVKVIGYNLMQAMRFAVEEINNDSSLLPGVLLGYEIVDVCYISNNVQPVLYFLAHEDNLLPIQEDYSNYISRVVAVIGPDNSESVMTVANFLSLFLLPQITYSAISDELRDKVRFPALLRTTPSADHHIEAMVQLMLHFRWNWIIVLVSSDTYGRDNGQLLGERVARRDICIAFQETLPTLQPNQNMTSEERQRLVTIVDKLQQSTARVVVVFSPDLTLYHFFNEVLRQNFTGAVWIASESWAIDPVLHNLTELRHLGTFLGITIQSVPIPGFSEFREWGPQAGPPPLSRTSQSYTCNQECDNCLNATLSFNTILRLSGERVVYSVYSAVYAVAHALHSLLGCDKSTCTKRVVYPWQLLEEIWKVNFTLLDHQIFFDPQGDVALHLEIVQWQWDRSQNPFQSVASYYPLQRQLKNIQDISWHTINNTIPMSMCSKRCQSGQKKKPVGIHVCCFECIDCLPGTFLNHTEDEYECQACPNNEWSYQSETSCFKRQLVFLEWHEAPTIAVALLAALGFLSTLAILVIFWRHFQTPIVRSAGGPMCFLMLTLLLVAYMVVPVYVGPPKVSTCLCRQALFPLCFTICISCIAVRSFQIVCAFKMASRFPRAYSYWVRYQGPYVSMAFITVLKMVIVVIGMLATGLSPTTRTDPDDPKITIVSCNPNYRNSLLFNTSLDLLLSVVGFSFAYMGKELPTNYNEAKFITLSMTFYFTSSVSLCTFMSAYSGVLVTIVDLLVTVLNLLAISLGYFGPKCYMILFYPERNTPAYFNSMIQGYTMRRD
T1 sequence (Q7RTX0 21-852 C757R): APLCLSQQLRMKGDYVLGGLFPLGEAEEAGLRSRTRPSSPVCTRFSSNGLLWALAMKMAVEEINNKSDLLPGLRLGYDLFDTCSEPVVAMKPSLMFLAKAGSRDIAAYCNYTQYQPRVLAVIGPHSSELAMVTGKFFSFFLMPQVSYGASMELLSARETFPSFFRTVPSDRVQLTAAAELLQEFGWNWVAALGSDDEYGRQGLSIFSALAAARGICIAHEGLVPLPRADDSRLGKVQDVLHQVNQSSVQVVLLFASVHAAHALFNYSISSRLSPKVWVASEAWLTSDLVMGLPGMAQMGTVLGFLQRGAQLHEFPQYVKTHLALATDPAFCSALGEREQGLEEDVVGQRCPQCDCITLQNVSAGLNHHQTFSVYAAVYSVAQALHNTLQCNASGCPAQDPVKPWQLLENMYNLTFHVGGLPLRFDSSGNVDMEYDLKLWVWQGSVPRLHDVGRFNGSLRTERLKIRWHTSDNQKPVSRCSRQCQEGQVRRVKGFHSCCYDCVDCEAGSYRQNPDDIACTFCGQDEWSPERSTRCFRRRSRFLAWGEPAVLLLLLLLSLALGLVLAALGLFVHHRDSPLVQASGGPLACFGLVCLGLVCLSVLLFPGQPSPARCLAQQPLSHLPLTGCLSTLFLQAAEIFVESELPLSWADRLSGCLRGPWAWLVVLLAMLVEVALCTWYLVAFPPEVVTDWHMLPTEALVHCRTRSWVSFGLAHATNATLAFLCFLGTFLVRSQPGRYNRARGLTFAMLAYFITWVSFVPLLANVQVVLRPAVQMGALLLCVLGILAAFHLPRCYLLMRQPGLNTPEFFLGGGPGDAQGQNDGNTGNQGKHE
Assay: Intracellular calcium assay (ΔF/F, S/N ratio) in HEK293E cells expressing hT1R2 and hT1R3 with Gα15-trans48LD;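 note: fluorescence read over 120 s after adding sweet stimulant across several concentrations, S/N taken as highest over lowest ΔF/F, higher meaning more sensitive detection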
Type: cell-based

[1] = Table 3, genes hT2/hT3 (hT1R2, hT1R3), max ΔF/F over min ΔF/F across concentrations
[2] = Table 4, genes hT2/hT3 (hT1R2, hT1R3)
[3] = Table 5, genes hT2/hT3 (hT1R2, hT1R3)
[4] = Table 6, genes hT2/hT3 (hT1R2, hT1Rm3)

Experimental: The HEK293E cells maintained by using the DMEM/Ham's F-12 medium (Nakarai Tesque) containing 10% fetal bovine serum ([sequence]) and 1% Pen Strep (GIBCO) were washed with D-PBS(−) (Nakarai Tesque), and collected from the flask by using 0.25% Trypsin EDTA (GIBCO). The cells were centrifuged (1,200 rpm, 3 minutes), and after the supernatant was removed, suspended in 5% FBS DMEM/Ham's F-12 at a density of 0.75×10^7 cell/ml. This suspension (10 ml) was put into a 150 cm^3 flask (IWAKI), and culture was performed overnight (37° C., 5% CO2).
After the gene transfer, the cells were washed with D-PBS(−), then removed from the flask by using 0.25% Trypsin EDTA (GIBCO), and collected. […] This cell suspension was put into wells of D-Lysine coat 96-well plate (BD bioscience) in such a volume that the cell count is 7.0×10^4 cells/well, and the cells were cultured overnight.
After the culture, all the medium of the 96 wells were discarded. […] After the staining, 50 μl of a solution of stimulant (sweet taste substance) prepared with the assay buffer was added to each well, and the fluorescence value was measured for 120 seconds after the stimulation by using FDSSμEELL (Hamamatsu Photonics). […] The measurement and analysis of the fluorescence value was performed by using the software attached to FDSSμEELL (FDSS7000EX), and ΔF/F value was calculated in accordance with the following equation, and used for the evaluation. ΔF/F=(Maximum fluorescence value after stimulation−Minimum fluorescence value after stimulation)/(Fluorescence value before stimulation)
Furthermore, by using the ΔF/F values obtained when each sweet taste substance was added, the S/N ratio was calculated. Specifically, the S/N value was calculated by using the minimum value of ΔF/F obtained when each substance was added at various concentrations as noise (N) value, and the similarly obtained maximum value of ΔF/F as the signal (S) value, and used as an index for sensitivity of the measurement of the activity of each receptor.

| SMILES | S/N [1] | S/N [2] | S/N [3] | S/N [4] |
| --- | --- | --- | --- | --- |
| OC[C@H]1O[C@H](O[C@]2(CCl)O[C@H](CCl)[C@@H](O)[C@@H]2O)[C@H](O)[C@@H](O)[C@H]1Cl [Sucralose, sucralose] | 3.3 | 3.3 | 3.3 | 3.3 |
| CC1=CC(=O)NS(=O)(=O)O1 [Acesulfame K, acesulfame potassium] | 1.9 | 1.9 | 1.9 | 1.9 |
| COC(=O)[C@H](Cc1ccccc1)NC(=O)[C@H](CC(=O)O)NCCCc1ccc(OC)c(O)c1 [Advantame, advantame] | 3.2 | 3.2 | 3.2 | 3.2 |
| OC[C@H]1O[C@@](CO)(O[C@H]2O[C@H](CO)[C@@H](O)[C@H](O)[C@H]2O)[C@@H](O)[C@@H]1O [Sucrose, sucrose] | 1.9 | 1.9 | 1.9 | 1.9 |
| COc1ccc(CCC(=O)c2c(O)cc(O[C@@H]3O[C@H](CO)[C@@H](O)[C@H](O)[C@H]3O[C@@H]3O[C@@H](C)[C@H](O)[C@@H](O)[C@H]3O)cc2O)cc1O [NHDC, neohesperidin dihydrochalcone] | – | – | 2.0 | 2.0 |
| COC(=O)[C@H](Cc1ccccc1)NC(=O)[C@H](CC(=O)O)NCCC(C)(C)C [Neotame, neotame] | 2.9 | 2.9 | 2.9 | 2.9 |
| C[C@H](NC(=Nc1ccc(C#N)cc1)NCC(=O)O)c1ccccc1 [SC-45647, [3-[(S)-1-phenylethyl]-2-(4-cyanophenyl)guanidino]acetic acid] | 3.0 | 3.0 | 3.0 | 3.0 |
| O=C1NS(=O)(=O)c2ccccc21.[Na] [Saccharin Na, sodium saccharin] | 2.5 | 2.5 | 2.5 | 2.5 |
| COC(=O)[C@H](Cc1ccccc1)NC(=O)[C@@H](N)CC(=O)O [Aspartame, aspartame] (HELM PEPTIDE1{D.F.[CO[*:1]]}$$$$V2.0) | 1.6 | 1.6 | 1.6 | 1.6 |

— patent US9341616B2, “Sweet taste receptor chimeric proteins and use thereof” (AJINOMOTO CO., INC., priority 2014, dated 2016)
